{"source": "paper PMC12615753", "about": "“Glutathione as a taste modulator: molecular mechanisms of interaction with umami and sweet taste receptors” (Food Chemistry: Molecular Sciences, 2025)", "target": "T1, hTAS1R1 Q278A/rTAS1R3 (Homo sapiens, UniProt Q7RTX1, Q278A)", "T1 construct": "expressed in transfected cells; host or cells: HEK293T/17 (ATCC CRL-11268)", "T1 sequence (Q7RTX1 21-841 Q278A)": "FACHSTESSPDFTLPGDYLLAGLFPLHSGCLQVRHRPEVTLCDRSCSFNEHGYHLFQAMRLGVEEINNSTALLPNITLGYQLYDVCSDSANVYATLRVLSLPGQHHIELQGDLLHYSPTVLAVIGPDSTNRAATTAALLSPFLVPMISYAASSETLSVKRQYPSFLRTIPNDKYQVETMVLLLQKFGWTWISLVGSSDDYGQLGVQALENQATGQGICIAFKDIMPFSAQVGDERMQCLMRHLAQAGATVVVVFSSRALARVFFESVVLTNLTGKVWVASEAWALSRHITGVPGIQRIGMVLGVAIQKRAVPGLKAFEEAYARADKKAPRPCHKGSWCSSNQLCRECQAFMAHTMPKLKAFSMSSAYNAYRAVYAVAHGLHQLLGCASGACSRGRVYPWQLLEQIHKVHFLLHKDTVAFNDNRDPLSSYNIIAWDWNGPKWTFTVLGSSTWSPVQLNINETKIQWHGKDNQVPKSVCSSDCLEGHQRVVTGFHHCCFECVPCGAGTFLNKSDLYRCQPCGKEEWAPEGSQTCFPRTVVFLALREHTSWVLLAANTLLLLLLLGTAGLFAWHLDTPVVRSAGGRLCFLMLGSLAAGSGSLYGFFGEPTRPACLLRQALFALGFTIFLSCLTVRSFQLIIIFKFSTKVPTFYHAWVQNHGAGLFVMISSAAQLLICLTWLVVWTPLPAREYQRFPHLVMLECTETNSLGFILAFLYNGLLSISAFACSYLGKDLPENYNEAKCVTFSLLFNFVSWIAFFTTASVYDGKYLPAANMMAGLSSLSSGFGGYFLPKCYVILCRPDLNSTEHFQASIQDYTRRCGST", "T1 sequence (Q923K1 21-858 partner)": "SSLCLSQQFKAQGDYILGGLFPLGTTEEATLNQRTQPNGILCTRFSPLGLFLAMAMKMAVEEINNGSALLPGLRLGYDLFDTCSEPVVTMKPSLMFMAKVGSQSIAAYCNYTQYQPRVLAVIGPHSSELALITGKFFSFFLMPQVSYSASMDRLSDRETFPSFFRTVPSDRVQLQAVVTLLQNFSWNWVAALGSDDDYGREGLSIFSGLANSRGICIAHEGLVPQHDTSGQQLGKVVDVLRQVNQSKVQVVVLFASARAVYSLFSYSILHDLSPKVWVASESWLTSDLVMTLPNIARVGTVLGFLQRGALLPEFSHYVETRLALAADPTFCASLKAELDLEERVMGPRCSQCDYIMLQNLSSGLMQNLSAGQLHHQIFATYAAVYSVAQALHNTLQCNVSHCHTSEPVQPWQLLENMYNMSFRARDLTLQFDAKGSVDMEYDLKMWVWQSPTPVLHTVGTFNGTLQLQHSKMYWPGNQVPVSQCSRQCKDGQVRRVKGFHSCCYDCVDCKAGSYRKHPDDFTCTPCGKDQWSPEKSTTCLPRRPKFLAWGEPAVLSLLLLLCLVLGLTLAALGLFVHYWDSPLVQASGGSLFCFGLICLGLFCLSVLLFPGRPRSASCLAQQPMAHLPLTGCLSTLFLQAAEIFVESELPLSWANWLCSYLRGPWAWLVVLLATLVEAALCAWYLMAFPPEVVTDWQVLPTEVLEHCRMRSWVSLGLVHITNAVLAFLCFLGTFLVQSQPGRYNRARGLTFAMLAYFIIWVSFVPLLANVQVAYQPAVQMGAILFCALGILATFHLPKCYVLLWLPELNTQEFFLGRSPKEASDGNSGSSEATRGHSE", "assay": "Calcium assay, hTAS1R1 mutant co-expressed with rTAS1R3", "format": "cell-based, rat", "data": [{"smiles": "N[C@@H](CCC(=O)N[C@@H](CS)C(=O)NCC(=O)O)C(=O)O", "note": "[GSH, γ-L-glutamyl-L-cysteinyl-glycine]", "values": [{"measurement": "EC50", "value": "3.42 ± 0.073", "unit": "mM"}, {"measurement": "effect of the added compound (1 mM) on the response to L-Glu", "setting": "Q278A", "value": "synergy was observed"}, {"measurement": "response to the agonist alone, vs WT", "setting": "Q278A", "value": "significantly increased the initial amplitude"}, {"measurement": "Max ∆F/F0", "setting": "Q278A, GSH", "value": "1.46 ± 0.01"}, {"measurement": "R1 = mutant EC50/WT EC50", "setting": "Q278A, GSH", "value": 1.4}]}]}
